According to patent US20170000784A1, “Autophagy Inhibitors” (priority 2013, published 2017):
Like-named read-outs stand apart in the source and are kept apart here.

What was measured:
[1] = test system: lysosomes (LAMP1, LysoTracker Red) in U2OS cells; experiment: Lysosome analysis by fluorescent microscopy (LAMP1 / LysoTracker Red); type: cell-based; conditions: 3 μM for 3 hours
Procedure: To determine deacidification of the lysosome, cells were incubated with LysoTracker Red, a dye that localizes to the lysosome based on the […] of the compartment. If the lysosome is no longer acidic, there is a loss in the amount of LysoTracker Red staining. Lysosomal inhibition was further determined by immunofluorescence of lysosome-associated membrane protein-1 (LAMP1). If the lysosome is inhibited, lysosomal turnover should decrease and an increase in the amount of LAMP1 staining would be apparent. U2OS cells were treated with Example 7 or Example 26 at 3 μM for 3 hours, supplementing LysoTracker Red for the final hour.
Using image analysis software, the mean intensities of both the LAMP1 and LysoTracker Red staining were measured and represent altered intensity level between treatments on intensity plots. Individual points were measured using a line scan on the image analysis software, which measures the intensity across the path of a line at any given point. Not only does the presence of LAMP1 positive membranes increases, but the intensity in LAMP1 staining also increases with Example 7 and Example 26 treatment. The inverse relationship in intensity holds true for LysoTracker Red staining.
U2OS cells were seeded at 5×10^4 cells per well in 5A McCoy's with 10% FBS on number 1.5 coverglass discs in 24-well tissue culture dishes. After 24 hours, cells were treated with 3 μM CQ, QN, VATG-027, or VATG-032 for three hours. An hour prior to fixation, media was supplemented with LysoTracker Red added at 100 nM (Invitrogen, L7528). Cells were washed with 1×PBS, fixed with 3.7% formaldehyde, permeabilized with 0.2% Triton-X 100, and blocked with 3% bovine serum albumin (BSA) in PBS. LAMP1 antibody (Santa Cruz, sc-18821) was added at 1:1000 for 16 hours at 4° C. followed by Alexa-Fluor-488-conjugated anti-mouse IgG (Invitrogen, A11008) 1:5000 for 1 hour at room temperature. Nuclei were stained with Hoechst 33342 (2 μg/mL). Coverglass discs were inverted onto a microscope slide using mounting gel. The microscope slides were imaged using a 60× oil-immersion objective on a Nikon Eclipse Ti fluorescent microscope. Intensity of the red and green channels were visualized using the intensity plot on the Nikon NIS Elements software (FIG. 13B). […] The RGB threshold of only the color […] indicating both LAMP1 and LysoTracker Red positivity was performed and data for analysis. The Mander's co-localization coefficient was produced from the Nikon NIS Elements software.
Next, the inventors sought to confirm the inhibition of lysosomal turnover induced by the compounds of the present invention, for example, those of Formula III, Formula III(a), Formula V, Formula V(a), Formula A, Formula A^1, Formula A^2, Formula A^3, or a pharmaceutically acceptable salt thereof, by evaluating the abundance of endogenous lysosomal protein, LAMP1. In addition, lysosome acidity was assessed by co-staining cells with LysoTracker Red, a dye that localizes to the lysosome based on the low pH. Cells were treated with 3 μM CQ, QN, Example 7, or Example 27 for 3 hours, with LysoTracker Red supplemented for the final hour. Following, cells were fixed and stained with endogenous LAMP1 antibodies and both LAMP1 and LysoTracker Red imaged. […] To quantify this phenotype, the co-localization of LAMP1 and LysoTracker Red was measured using image analysis software. […] In addition, Mander's colocalization coefficient (MCC) values were determined for each treatment (FIG. 13C). Not only does the presence of LAMP1-positive membranes increase, but the intensity of LAMP1 staining also increases with QN, Example 7, and Example 27 treatment (FIG. 13C).

[2] = test system: U2OS cells stably expressing tfLC3; type: cell-based; conditions: for Effective Concentration (EC): concentration with statistically significant increase in puncta number over vehicle control, three hours
Procedure: U2OS cells stably expressing tfLC3 were seeded at 50,000 cells per well in 5A McCoy's with 10% FBS on number 1.5 coverglass in 24-well tissue culture dishes. After 24 hours, cells were treated with known autophagy controls rapamycin [100 nM] (Millipore, 553210-10 mg), bafilomycin A1 [100 nM] (AG Scientific, B-1183), AZD-8055 [100 nM](Selleck Chemicals, S1555), and CQ [50 μM] as well as autophagy inhibitors (CQ, QN, Example 7, and Example 27) at doses of 0.1 μM, 0.25 μM, 0.5 μM, 1 μM, 5 μM, 15 μM, 25 μM, and 50 μM for three hours. Cells were washed with 1×PBS, fixed with 3.7% formaldehyde, and nuclei were stained with Hoechst 33342 (2 μg/mL). Coverglass was inverted onto microscope slides using mounting gel. Cells were imaged using a 60× oil-immersion objective on a Nikon Eclipse Ti fluorescent microscope and 10 images at each dose were taken for quantification. Image processing and quantification were completed with the Nikon NIS Elements software. To quantify, images were deconvolved using a 2D blind deconvolution function with one iteration and settings of normal cell thickness and normal noise level. Regions of interest (ROI) were drawn around the edges of each cell. Intensity thresholds were set to include all pixels equal to or greater than the intensity above the mean background fluorescence using the separation feature and restrictions set for puncta size (FIG. 9). Objects within the threshold for each ROI were quantified using an automated object count function and exported for analysis. Although other parameters were also collected, the mean intensity of the objects was averaged between the 10 images of each dose, or approximately 50 cells (FIGS. 9B and 9C). Representative images were chosen for each dose and the lookup table (LUT) brightness' were set based on the mean intensity of the DMSO control (FIGS. 8A and 10A). The mean intensity of each image was divided by the mean intensity of the DMSO control to control for brightness and the LUTs were adjusted by the percent difference to avoid background and for consistent visualization. All other settings (gain, exposure time, and lamp strength) were kept the same across all conditions. […] Mean intensity was further chosen for quantification as it accurately represents both the increase in puncta number and area when the accumulation of autophagosomes partially fuse (FIG. 9C, 9D). Quantification of the red channel (RFP-LC3 puncta) was performed to determine the total autophagic vesicle population (both autophagosomes and autolysosomes).
Autophagy inhibition can be measured by fluorescent microscopy using cells expressing a tandem fluorescent (RFP-GFP) labeled LC3 sensor (tfLC3). Upon autophagosome nucleation, LC3 is localized to the autophagic membrane and the overlapping GFP and RFP fluorescence appears as yellow puncta. After the autophagosome matures, it fuses with the lysosome, forming an autolysosome. The GFP in this LC3 sensor is pH labile and becomes quenched by the acidic environment of the autolysosome. However, the RFP remains stable; therefore, autolysosomes are indicated by red puncta. Accordingly, when autophagy is inhibited at the final stage (completion), the abundance of yellow puncta is expected to increase proportionally to the level of autophagy inhibition.
Cells were then fixed and imaged by fluorescent microscopy.

[3] = test system: endogenous LC3 in U2OS cells; experiment: Western blot of endogenous LC3 (LC3-II accumulation) in U2OS; type: cell-based; conditions: three hours, basally and in response to rapamycin-induced autophagy induction, FIG. 7
Procedure: For Western blotting, U2OS cells were seeded in 10 cm plates in 5A McCoy's with 10% FBS at 1×10^6 cells per plate. […] After treatment, cells were lysed [10 mM KPO4, 1 mM EDTA, 10 mM MgCl2, 5 mM EGTA, 50 mM bis-glycerophosphate, 0.5% NP40, 0.1% Brij35, 0.1% sodium deoxycholate, 1 mM NaVO4, 5 mM NaF, 2 mM DTT, and complete protease inhibitors (Sigma, P8340-5 mL)] and 50 μg of protein was resolved by SDS-PAGE. […] Proteins were detected with enhanced chemiluminescence or using the Odyssey machine and quantified (FIGS. 12, 15, 16, 7 and 11).

A375 cells = type: cell-based, human; conditions: A375 soft agar; single compound at IC10
Excerpt: After three weeks of treatment, cells were fixed and stained in 1% paraformaldehyde in 1×PBS containing 0.005% crystal violet overnight. Cells were destained with multiple washes of 1×PBS to remove background staining. Plates were scanned and images quantified using Nikon NIS Elements software. To quantify, each image was sharpened and an ROI of equal size drawn around each well. Intensity thresholds were set to include all pixels equal to or greater than the intensity of the mean background fluorescence. Objects within the threshold of each ROI were quantified using an automated object count function and exported for analysis. Object number was quantified to denote total colony formation. […] Additivity was established when the expected viability determined by the Bliss independence model was equal to the actual viability. This model was chosen since the effects of both compounds are mutually non-exclusive and follow first order Michaelis-Menten kinetics.
To determine if the effects of each combination were more than, less than, or equal to additive, predictions for additivity were made using the Bliss Independence (Table 7), as disclosed in Yan H, Zhang B, Li S, Zhao Q. A formal model for analyzing drug combination effects and its application in TNF-alpha-induced NFkappaB pathway. BMC Syst. […] Drug combination studies and their synergy quantification using the Chou-Talalay method.

Compound | Potency (EC/ECCQ) [2] | Effective Concentration (EC) [2] [µM] | accumulation of LC3-II [3] | other results
CCN1CCC(Nc2c3c(nc4cc(Cl)ccc24)CCCC3)CC1 [Example 26, 6-Chloro-N-(1-ethylpiperidin-4-yl)-1,2,3,4-tetrahydroacridin-9-amine] |  |  |  | LAMP1 staining [1]: increases; LysoTracker Red staining ([1]; LysoTracker Red for the final hour): less intense
piperaquine | 0.25 | 50 | induce the accumulation of LC3-II | 
COc1cc(NC(C)CCCN)c2ncccc2c1 (stereo not drawn) [Primaquine, primaquine] |  | 50 | induce the accumulation of LC3-II | Potency (EC/ECCQ) ([2]; relative potency score versus chloroquine, greater than one = more potent than CQ): 0.25
CCN(CC)Cc1cc(Nc2ccnc3cc(Cl)ccc23)ccc1O [Amodiaquine, amodiaquine] | 1 | 15 | induce the accumulation of LC3-II | 
COc1ccc(-c2ccc3c(N4CCOC[C@@H]4C)nc(N4CCOC[C@@H]4C)nc3n2)cc1CO [AZD-8055, reference compound] |  |  |  | Relative Growth Inhibition Compound B (A375 cells): 0.12
